{"source": "patent US8394398B2", "about": "(Abbott Laboratories, priority 1997, dated 2013)", "test": "Phase 1 multiple escalating dose study, QD intravenous infusion for 14 days, safety and pharmacokinetics", "assay_type": "in vivo, human", "settings": "for AUC(0-inf) / Cmax / clearance / Vd / half-life / AUC: human, whole blood; for AUC: Day 14, blood", "description": "The present study was designed to evaluate the pharmacokinetics of zotarolimus following multiple dosing and to assess its safety while maximizing systemic exposure of healthy subjects. […] The study investigated pharmacokinetics and safety of zotarolimus in a Phase 1, multiple dose-escalation study following multiple intravenous infusions of 200, 400 and 800 μg doses, every day for fourteen consecutive days in healthy subjects.\nPhase 1, multiple-escalating dose, double-blind, placebo-controlled, randomized study. Seventy-two subjects equally divided in 3 once-daily (QD) regimens (200, 400 or 800 μg QD with 16 active and 8 placebo per regimen) were administered a 60-minute QD IV infusion of zotarolimus for 14 consecutive days. Blood samples were collected over 24 hours following the first dose, before dosing on days 10, 11, 12, 13, and for 168 hours following Day 14 dose. Urine samples were collected over 24 hours on days 1, 14, 16, 18 and 20. Blood and urine zotarolimus concentrations were determined using a validated LC/MS/MS method. Pharmacokinetic parameters were determined by compartmental analysis. All Day-AUC0-∞ (area under blood concentration-time curve from time 0 to infinity including all 14 doses) was calculated. Dose and time-linearity and achievement of steady-state were evaluated. Fraction of drug eliminated in urine was determined.\nWithin each group, subjects were equally divided at the two study sites with each site enrolling 12 subjects (zotarolimus, eight subjects; placebo four subjects). The dosing scheme within each dose group is presented below:\nSubjects received, under fasting conditions, a single 60-minute daily (QD) intravenous infusion of 200, 400, or 800 μg of zotarolimus or a matching intravenous infusion of placebo for Groups I, II and III, respectively on Study Days 1 through 14. The drug was administered via a syringe pump connected to a y-site device, which also infused 125-150 mL of 5% aqueous dextrose solution (D5W) over 60 minutes. The groups were dosed sequentially with at least 7 days separating the last dose of the previous group and the first dose of the next group during which time safety data from the previous group was analyzed. Dose escalation was dependent on the safety analysis of the lower dose group.\nFive (5)-mL blood samples were collected in potassium EDTA containing tubes to evaluate zotarolimus concentrations prior to dosing (0 hour), and at 0.25, 0.5, 1.0, 1 hour 5 min, 1.25, 1.5, 2, 3, 4, 8, 12, 18 and 24 hours after starting infusion on Study Days 1 and 14. Additional samples were collected at 36, 48, 72, 96, 120, 144 and 168 hours after starting infusion on Study Day 14 and before dosing on Days 10, 11, 12 and 13. Urine was collected in containers without preservatives over the following intervals: 0 to 6, 6 to 12, 12 to 18 and 18 to 24 hours after starting the infusion on Study Days 1, 14, 16, 18 and 20.\nBlood and urine concentrations of zotarolimus were determined using a validated liquid/liquid extraction HPLC tandem mass spectrometric method (LC-MS/MS). The lower limit of quantification of zotarolimus was 0.20 ng/mL using 0.3 mL blood sample and 0.50 ng/mL using 0.3 mL urine sample.\nSafety was evaluated based on adverse event, physical examination, vital signs, ECG, injection site and laboratory tests assessments\nThe pharmacokinetic parameter values of zotarolimus were estimated for individual subjects using compartmental analysis. Data from the first dose on Study Day 1, the last dose on Study Day 14 and the trough concentrations on Study Days 10, 11, 12 and 13 were simultaneously modeled for each individual subject. […]", "note": "Read-outs that look alike come from different tables or passages of the source.", "data": [{"compound": "CO[C@H]1C[C@@H]2CC[C@@H](C)[C@@](O)(O2)C(=O)C(=O)N2CCCC[C@H]2C(=O)O[C@H]([C@H](C)C[C@@H]2CC[C@H](n3cnnn3)[C@H](OC)C2)CC(=O)[C@H](C)/C=C(\\C)[C@@H](O)[C@@H](OC)C(=O)[C@H](C)C[C@H](C)/C=C/C=C/C=C/1C", "note": "[zotarolimus]", "values": [{"measurement": "fraction of dose recovered in the urine", "setting": "800 μg QD dose group, within a 24-hour period on Day 1 and Day 14", "result": "approximately 0.1%"}, {"measurement": "most common treatment-emergent adverse events", "setting": "200, 400, 800 μg QD IV for 14 days", "result": "pain, headache, injection site reaction, dry skin, abdominal pain, diarrhea and rash"}, {"measurement": "V1, range of means over the studied regimens", "setting": "200-800 μg QD IV for 14 days", "result": "11.3 to 13.1", "unit": "L"}, {"measurement": "steady state for QD dosing reached", "setting": "first trough samples measured on Day 10", "result": "≤ 10", "unit": "days"}, {"measurement": "AUC(0-inf)", "setting": "intravenous, 200 μg QD dose group, read-out: median All Day −AUC0-∞", "result": 677, "unit": "ng·h/mL"}, {"measurement": "AUC(0-inf)", "setting": "intravenous, 400 μg QD dose group, read-out: median All Day −AUC0-∞", "result": 1440, "unit": "ng·h/mL"}, {"measurement": "AUC(0-inf)", "setting": "intravenous, 800 μg QD dose group, read-out: median All Day −AUC0-∞", "result": 2400, "unit": "ng·h/mL"}, {"measurement": "Cmax", "setting": "200 μg QD IV infusion for 14 days, blood, secondary predicted parameter", "result": "11.2 ± 1.1", "unit": "ng/mL"}, {"measurement": "clearance", "setting": "200 μg QD IV infusion for 14 days, blood, secondary predicted parameter, read-out: CL (converted)", "result": 70, "unit": "mL/min"}, {"measurement": "Vd", "setting": "200 μg QD IV infusion for 14 days, blood, secondary predicted parameter, read-out: Vss", "result": "92.5 ± 13", "unit": "L"}, {"measurement": "half-life", "setting": "200 μg QD IV infusion for 14 days, blood, harmonic mean ± pseudo-standard deviation, read-out: t½ (converted)", "result": "24.7 ± 4.6", "unit": "h"}, {"measurement": "AUC", "setting": "200 μg QD IV infusion, secondary predicted parameter", "result": "49 ± 6.2", "unit": "ng·h/mL"}, {"measurement": "Cmax", "setting": "400 μg QD IV infusion for 14 days, blood, secondary predicted parameter", "result": "21.4 ± 2.4", "unit": "ng/mL"}, {"measurement": "clearance", "setting": "400 μg QD IV infusion for 14 days, blood, secondary predicted parameter, read-out: CL (converted)", "result": 66.7, "unit": "mL/min"}, {"measurement": "Vd", "setting": "400 μg QD IV infusion for 14 days, blood, secondary predicted parameter, read-out: Vss", "result": "112 ± 21.1", "unit": "L"}, {"measurement": "half-life", "setting": "400 μg QD IV infusion for 14 days, blood, harmonic mean ± pseudo-standard deviation, read-out: t½ (converted)", "result": "31 ± 4.6", "unit": "h"}, {"measurement": "AUC", "setting": "400 μg QD IV infusion, secondary predicted parameter", "result": "104 ± 19", "unit": "ng·h/mL"}, {"measurement": "Cmax", "setting": "800 μg QD IV infusion for 14 days, blood, secondary predicted parameter", "result": "38.7 ± 6.3", "unit": "ng/mL"}, {"measurement": "clearance", "setting": "800 μg QD IV infusion for 14 days, blood, secondary predicted parameter, read-out: CL (converted)", "result": 76.7, "unit": "mL/min"}, {"measurement": "Vd", "setting": "800 μg QD IV infusion for 14 days, blood, secondary predicted parameter, read-out: Vss", "result": "118 ± 18.7", "unit": "L"}, {"measurement": "half-life", "setting": "800 μg QD IV infusion for 14 days, blood, harmonic mean ± pseudo-standard deviation, read-out: t½ (converted)", "result": "30 ± 4.1", "unit": "h"}, {"measurement": "AUC", "setting": "800 μg QD IV infusion, secondary predicted parameter", "result": "180 ± 17.4", "unit": "ng·h/mL"}, {"measurement": "clearance", "setting": "200-800 μg QD IV for 14 days, read-out: CL, range of means over the studied regimens", "result": "66.7 to 76.7", "unit": "mL/min"}, {"measurement": "Vd", "setting": "200-800 μg QD IV for 14 days, read-out: Vss, range of means over the studied regimens", "result": "92.5 to 118", "unit": "L"}, {"measurement": "half-life", "setting": "200-800 μg QD IV for 14 days, read-out: terminal elimination t1/2, range of means over the studied regimens", "result": "24.7 to 31", "unit": "h"}, {"measurement": "AUC(0-inf)", "setting": "200-800 μg QD IV, time 0 to infinity including all 14 doses, read-out: All Day-AUC0-∞, range over the studied regimens", "result": "677 to 2400", "unit": "ng·h/mL"}, {"measurement": "dose proportionality and time dependence of pharmacokinetics", "setting": "intravenously for 14 consecutive days", "result": "dose proportional and time invariant"}]}]}
